Experimental data as given in ChEMBL document CHEMBL2203210, “SAR and in vivo evaluation of 4-aryl-2-aminoalkylpyrimidines as potent and selective Janus kinase 2 (JAK2) inhibitors” (Bioorg Med Chem Lett, 2012).
pIC50: −log10 of the molar value.

Assays:
[1] = Oral bioavailability in cynomolgus monkey at 3 mg/kg; type: ADME, organism-based, Macaca fascicularis; details: in vivo
[2] = Cmax in cynomolgus monkey at 3 mg/kg, iv; type: ADME, organism-based, Macaca fascicularis; set-up: dose 3 mg/kg, route intravenous; details: in vivo
[3] = Oral bioavailability in athymic nude mouse at 10 mg/kg; type: ADME, organism-based; details: in vivo
Canis familiaris = test: Volume of distribution in Beagle dog at 3 mg/kg, po and iv; type: ADME, organism-based, Canis lupus familiaris; set-up: dose 3 mg/kg, route oral; details: in vivo
Mus musculus [4] = test: Inhibition of JAK2 in HEL 92.1.7 cells xenografted in po dosed nude mouse assessed as inhibition of STAT3 phosphorylation after 4 hrs; type: functional, organism-based
[5] = Cmax in Beagle dog at 3 mg/kg, iv; type: ADME, organism-based, Canis lupus familiaris; set-up: dose 3 mg/kg, route intravenous; details: in vivo
[6] = target: Tyrosine-protein kinase JAK1 (Homo sapiens, UniProt P23458); test: Inhibition of JAK1
[7] = Oral bioavailability in CD rat at 5 mg/kg; type: ADME, organism-based; details: in vivo
[8] = Plasma concentration in nude mouse xenografted with HEL 92.1.7 cells at 30 mg/kg, po after 4 hrs; type: ADME, organism-based; set-up: dose 30 mg/kg, route oral
[9] = Cmax in Beagle dog at 3 mg/kg, po; type: ADME, organism-based, Canis lupus familiaris; set-up: dose 3 mg/kg, route oral; details: in vivo
[10] = target: Voltage-gated inwardly rectifying potassium channel KCNH2 (Homo sapiens, UniProt Q12809); test: Inhibition of human ERG
Rattus norvegicus [11] = test: Dose normalized AUC in CD rat at 5 mg/kg, po; type: ADME, organism-based; set-up: dose 5 mg/kg, route oral; details: in vivo
[12] = Half life in CD rat at 5 mg/kg, po; type: ADME, organism-based; set-up: dose 5 mg/kg, route oral; details: in vivo
[13] = Half life in athymic nude mouse at 10 mg/kg, iv; type: ADME, organism-based; set-up: dose 10 mg/kg, route intravenous; details: in vivo
[14] = target: Non-receptor tyrosine-protein kinase TYK2 (Homo sapiens, UniProt P29597); test: Inhibition of TYK2
HEL [15] = test: Anitumour activity against HEL 92.1.7 cells xenografted in nude mouse assessed as tumor growth inhibition at 300 mg/kg, po bid administered up to 14 days relative to vehicle-treated control; type: functional, Homo sapiens; details: 336 h, read-out: TGI
Cynomolgus monkey [16] = test: Volume of distribution in cynomolgus monkey at 3 mg/kg, po and iv; type: ADME, organism-based, Macaca fascicularis; set-up: dose 3 mg/kg, route oral; details: in vivo
[17] = target: Vascular endothelial growth factor receptor 1 (Homo sapiens, UniProt P17948); test: Inhibition of FLT1
[18] = target: Mast/stem cell growth factor receptor Kit (Homo sapiens, UniProt P10721); test: Inhibition of c-KIT
[19] = target: Receptor-type tyrosine-protein kinase FLT3 (Homo sapiens, UniProt P36888); test: Inhibition of FLT3
Mus musculus [20] = test: Inhibition of JAK2 in HEL 92.1.7 cells xenografted in nude mouse assessed as inhibition of STAT3 phosphorylation at 100 mg/kg, po after 4 hrs relative to vehicle-treated control; type: functional
Cytochrome P450 1A2 = Cytochrome P450 1A2 (Homo sapiens, UniProt P05177); test: Inhibition of CYP1A2; type: ADME
[21] = Drug uptake in nude mouse xenografted with HEL 92.1.7 cells at 30 mg/kg, po after 4 hrs; type: ADME, organism-based; set-up: dose 30 mg/kg, route oral; details: in vivo, read-out: Drug uptake
Mus musculus [22] = test: Inhibition of JAK2 in HEL 92.1.7 cells xenografted in po dosed nude mouse assessed as inhibition of STAT1 phosphorylation after 4 hrs; type: functional, organism-based
[23] = target: Vascular endothelial growth factor receptor 2 (Homo sapiens, UniProt P35968); test: Inhibition of KDR
[24] = Oral bioavailability in Beagle dog at 3 mg/kg; type: ADME, organism-based, Canis lupus familiaris; details: in vivo
Mus musculus [25] = test: Inhibition of JAK2 in HEL 92.1.7 cells xenografted in nude mouse assessed as inhibition of STAT3 phosphorylation at 300 mg/kg, po after 4 hrs relative to vehicle-treated control; type: functional
HEL [26] = test: Induction of apoptosis in HEL 92.1.7 cells xenografted in nude mouse at 300 mg/kg, po bid relative to vehicle-treated control; type: functional, Homo sapiens
Mus musculus [27] = test: Inhibition of JAK2 in HEL 92.1.7 cells xenografted in nude mouse assessed as inhibition of STAT3 phosphorylation at 30 mg/kg, po after 4 hrs relative to vehicle-treated control; type: functional
[28] = Half life in Beagle dog at 3 mg/kg, iv; type: ADME, organism-based, Canis lupus familiaris; set-up: dose 3 mg/kg, route intravenous; details: in vivo
[29] = Cmax in CD rat at 5 mg/kg, po; type: ADME, organism-based; set-up: dose 5 mg/kg, route oral; details: in vivo
Cytochrome P450 3A4 = Cytochrome P450 3A4 (Homo sapiens, UniProt P08684); test: Inhibition of CYP3A4; type: ADME
Rattus norvegicus [30] = test: Dose normalized AUC in CD rat at 5 mg/kg, iv; type: ADME, organism-based; set-up: dose 5 mg/kg, route intravenous; details: in vivo
[31] = Half life in CD rat at 5 mg/kg, iv; type: ADME, organism-based; set-up: dose 5 mg/kg, route intravenous; details: in vivo
Rattus norvegicus [32] = test: Volume of distribution in CD rat at 5 mg/kg, po and iv; type: ADME, organism-based; set-up: dose 5 mg/kg, route oral; details: in vivo
[33] = Drug uptake in nude mouse xenografted with HEL 92.1.7 cells at 100 mg/kg, po after 4 hrs; type: ADME, organism-based; set-up: dose 100 mg/kg, route oral; details: in vivo, read-out: Drug uptake
[34] = target: Ribosomal protein S6 kinase beta-1 (Homo sapiens, UniProt P23443); test: Inhibition of P70S6K
Mus musculus [35] = test: Dose normalized AUC in athymic nude mouse at 10 mg/kg, po; type: ADME, organism-based; set-up: dose 10 mg/kg, route oral; details: in vivo
[36] = Drug uptake in nude mouse xenografted with HEL 92.1.7 cells at 300 mg/kg, po after 4 hrs; type: ADME, organism-based; set-up: dose 300 mg/kg, route oral; details: in vivo, read-out: Drug uptake
Cynomolgus monkey [37] = test: Dose normalized AUC in cynomolgus monkey at 3 mg/kg, iv; type: ADME, organism-based, Macaca fascicularis; set-up: dose 3 mg/kg, route intravenous; details: in vivo
HEL [38] = test: Anitumour activity against HEL 92.1.7 cells xenografted in nude mouse assessed as tumor growth inhibition at 200 mg/kg, po bid administered up to 14 days relative to vehicle-treated control; type: functional, Homo sapiens; details: 336 h, read-out: TGI
Mus musculus [39] = test: Inhibition of JAK2 in HEL 92.1.7 cells xenografted in nude mouse assessed as inhibition of STAT1 phosphorylation at 100 mg/kg, po after 4 hrs relative to vehicle-treated control; type: functional
Mus musculus [40] = test: Inhibition of JAK2 in HEL 92.1.7 cells xenografted in nude mouse assessed as inhibition of STAT1 phosphorylation at 300 mg/kg, po after 4 hrs relative to vehicle-treated control; type: functional
Cynomolgus monkey [41] = test: Dose normalized AUC in cynomolgus monkey at 3 mg/kg, po; type: ADME, organism-based, Macaca fascicularis; set-up: dose 3 mg/kg, route oral; details: in vivo
[42] = Inhibition of p-gp
[43] = target: Mitogen-activated protein kinase kinase kinase 9 (Homo sapiens, UniProt P80192); test: Inhibition of MLK1
Chain of Mitogen-activated protein kinase kinase kinase 9 (P80192 whole entry): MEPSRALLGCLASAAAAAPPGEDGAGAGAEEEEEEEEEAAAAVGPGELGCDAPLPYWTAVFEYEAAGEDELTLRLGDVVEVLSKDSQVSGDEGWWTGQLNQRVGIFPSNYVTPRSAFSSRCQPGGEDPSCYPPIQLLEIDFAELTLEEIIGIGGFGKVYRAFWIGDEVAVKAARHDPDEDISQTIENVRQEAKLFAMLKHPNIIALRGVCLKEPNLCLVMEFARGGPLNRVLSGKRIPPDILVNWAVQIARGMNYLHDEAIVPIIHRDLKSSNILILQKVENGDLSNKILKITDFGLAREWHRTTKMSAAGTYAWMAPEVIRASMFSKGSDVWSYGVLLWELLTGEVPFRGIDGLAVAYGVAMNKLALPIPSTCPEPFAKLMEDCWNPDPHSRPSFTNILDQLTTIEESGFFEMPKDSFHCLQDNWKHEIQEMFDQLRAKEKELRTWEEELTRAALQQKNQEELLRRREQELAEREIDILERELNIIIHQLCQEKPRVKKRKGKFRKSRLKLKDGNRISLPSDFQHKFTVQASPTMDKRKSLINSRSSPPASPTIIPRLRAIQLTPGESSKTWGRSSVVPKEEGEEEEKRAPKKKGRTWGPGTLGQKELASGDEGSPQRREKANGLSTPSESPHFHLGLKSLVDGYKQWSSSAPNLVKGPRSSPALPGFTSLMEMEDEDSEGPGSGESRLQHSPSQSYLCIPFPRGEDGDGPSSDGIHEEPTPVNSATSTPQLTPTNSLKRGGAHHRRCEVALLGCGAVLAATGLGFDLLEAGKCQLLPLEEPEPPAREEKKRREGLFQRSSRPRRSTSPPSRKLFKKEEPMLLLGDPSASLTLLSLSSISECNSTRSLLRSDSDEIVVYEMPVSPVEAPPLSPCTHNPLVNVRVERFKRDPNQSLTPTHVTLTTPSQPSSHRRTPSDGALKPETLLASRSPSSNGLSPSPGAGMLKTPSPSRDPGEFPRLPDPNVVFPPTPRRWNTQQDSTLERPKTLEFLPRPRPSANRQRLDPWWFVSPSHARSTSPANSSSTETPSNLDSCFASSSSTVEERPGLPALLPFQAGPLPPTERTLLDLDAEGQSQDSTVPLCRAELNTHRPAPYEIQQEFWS

Chain of Mast/stem cell growth factor receptor Kit (P10721 whole entry): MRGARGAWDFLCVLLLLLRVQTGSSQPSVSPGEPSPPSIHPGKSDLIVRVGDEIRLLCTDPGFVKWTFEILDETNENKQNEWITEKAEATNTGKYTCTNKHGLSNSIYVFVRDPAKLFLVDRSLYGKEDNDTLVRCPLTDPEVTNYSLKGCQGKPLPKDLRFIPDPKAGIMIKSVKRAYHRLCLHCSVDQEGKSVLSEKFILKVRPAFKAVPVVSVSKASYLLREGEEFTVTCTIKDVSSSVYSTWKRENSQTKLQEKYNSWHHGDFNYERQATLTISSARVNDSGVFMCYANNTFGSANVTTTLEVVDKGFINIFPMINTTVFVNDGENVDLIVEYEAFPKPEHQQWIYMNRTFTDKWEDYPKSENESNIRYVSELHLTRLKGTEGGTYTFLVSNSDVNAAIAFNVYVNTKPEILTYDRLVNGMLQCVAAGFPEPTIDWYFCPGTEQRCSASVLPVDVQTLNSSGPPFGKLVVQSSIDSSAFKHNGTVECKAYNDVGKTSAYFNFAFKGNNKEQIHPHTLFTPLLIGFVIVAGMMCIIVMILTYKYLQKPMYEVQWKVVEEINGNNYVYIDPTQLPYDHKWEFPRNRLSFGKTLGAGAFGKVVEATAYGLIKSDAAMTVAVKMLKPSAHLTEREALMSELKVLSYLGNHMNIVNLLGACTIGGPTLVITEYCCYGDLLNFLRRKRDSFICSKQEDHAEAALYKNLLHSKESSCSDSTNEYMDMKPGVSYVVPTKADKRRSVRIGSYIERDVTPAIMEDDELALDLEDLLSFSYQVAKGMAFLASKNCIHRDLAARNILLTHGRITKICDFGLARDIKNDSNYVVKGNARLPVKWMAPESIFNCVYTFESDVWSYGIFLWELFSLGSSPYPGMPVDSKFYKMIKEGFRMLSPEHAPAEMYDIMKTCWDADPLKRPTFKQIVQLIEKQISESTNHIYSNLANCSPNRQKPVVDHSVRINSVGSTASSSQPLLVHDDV
Chain of Vascular endothelial growth factor receptor 1 (P17948 whole entry): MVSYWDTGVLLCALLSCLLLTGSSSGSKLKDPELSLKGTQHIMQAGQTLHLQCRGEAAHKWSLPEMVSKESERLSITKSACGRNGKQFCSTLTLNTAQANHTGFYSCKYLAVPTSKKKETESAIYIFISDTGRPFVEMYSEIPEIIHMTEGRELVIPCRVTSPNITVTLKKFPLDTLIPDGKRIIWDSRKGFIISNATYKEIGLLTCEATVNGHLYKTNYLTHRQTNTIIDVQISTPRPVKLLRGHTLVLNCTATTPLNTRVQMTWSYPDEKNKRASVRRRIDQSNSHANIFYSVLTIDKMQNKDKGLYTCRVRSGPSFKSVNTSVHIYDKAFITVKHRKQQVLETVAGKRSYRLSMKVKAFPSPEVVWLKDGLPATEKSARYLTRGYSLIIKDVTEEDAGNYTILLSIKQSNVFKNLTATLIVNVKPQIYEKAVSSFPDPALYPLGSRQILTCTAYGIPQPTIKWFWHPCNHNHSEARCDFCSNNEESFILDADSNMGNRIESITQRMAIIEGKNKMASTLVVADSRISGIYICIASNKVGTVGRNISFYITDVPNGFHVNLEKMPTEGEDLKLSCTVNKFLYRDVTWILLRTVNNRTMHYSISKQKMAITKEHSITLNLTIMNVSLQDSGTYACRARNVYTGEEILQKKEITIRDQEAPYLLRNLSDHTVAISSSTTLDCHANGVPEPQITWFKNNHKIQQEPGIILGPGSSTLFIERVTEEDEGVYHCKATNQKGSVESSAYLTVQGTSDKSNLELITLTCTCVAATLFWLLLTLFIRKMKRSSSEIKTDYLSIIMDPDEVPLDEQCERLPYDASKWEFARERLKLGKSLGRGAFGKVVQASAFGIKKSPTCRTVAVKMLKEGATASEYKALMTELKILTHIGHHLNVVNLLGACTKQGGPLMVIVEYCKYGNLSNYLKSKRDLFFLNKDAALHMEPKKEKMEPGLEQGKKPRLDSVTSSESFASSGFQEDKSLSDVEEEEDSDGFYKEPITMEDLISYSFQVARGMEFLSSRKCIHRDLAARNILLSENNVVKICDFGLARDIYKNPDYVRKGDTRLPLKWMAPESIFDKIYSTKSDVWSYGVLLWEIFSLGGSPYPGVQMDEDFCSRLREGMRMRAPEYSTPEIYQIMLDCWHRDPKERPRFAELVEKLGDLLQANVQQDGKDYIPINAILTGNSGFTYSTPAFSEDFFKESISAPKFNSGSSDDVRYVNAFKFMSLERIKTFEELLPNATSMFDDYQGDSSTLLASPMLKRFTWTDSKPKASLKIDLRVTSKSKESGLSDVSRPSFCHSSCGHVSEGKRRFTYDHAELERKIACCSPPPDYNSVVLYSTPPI
Chain of Tyrosine-protein kinase JAK1 (P23458 whole entry): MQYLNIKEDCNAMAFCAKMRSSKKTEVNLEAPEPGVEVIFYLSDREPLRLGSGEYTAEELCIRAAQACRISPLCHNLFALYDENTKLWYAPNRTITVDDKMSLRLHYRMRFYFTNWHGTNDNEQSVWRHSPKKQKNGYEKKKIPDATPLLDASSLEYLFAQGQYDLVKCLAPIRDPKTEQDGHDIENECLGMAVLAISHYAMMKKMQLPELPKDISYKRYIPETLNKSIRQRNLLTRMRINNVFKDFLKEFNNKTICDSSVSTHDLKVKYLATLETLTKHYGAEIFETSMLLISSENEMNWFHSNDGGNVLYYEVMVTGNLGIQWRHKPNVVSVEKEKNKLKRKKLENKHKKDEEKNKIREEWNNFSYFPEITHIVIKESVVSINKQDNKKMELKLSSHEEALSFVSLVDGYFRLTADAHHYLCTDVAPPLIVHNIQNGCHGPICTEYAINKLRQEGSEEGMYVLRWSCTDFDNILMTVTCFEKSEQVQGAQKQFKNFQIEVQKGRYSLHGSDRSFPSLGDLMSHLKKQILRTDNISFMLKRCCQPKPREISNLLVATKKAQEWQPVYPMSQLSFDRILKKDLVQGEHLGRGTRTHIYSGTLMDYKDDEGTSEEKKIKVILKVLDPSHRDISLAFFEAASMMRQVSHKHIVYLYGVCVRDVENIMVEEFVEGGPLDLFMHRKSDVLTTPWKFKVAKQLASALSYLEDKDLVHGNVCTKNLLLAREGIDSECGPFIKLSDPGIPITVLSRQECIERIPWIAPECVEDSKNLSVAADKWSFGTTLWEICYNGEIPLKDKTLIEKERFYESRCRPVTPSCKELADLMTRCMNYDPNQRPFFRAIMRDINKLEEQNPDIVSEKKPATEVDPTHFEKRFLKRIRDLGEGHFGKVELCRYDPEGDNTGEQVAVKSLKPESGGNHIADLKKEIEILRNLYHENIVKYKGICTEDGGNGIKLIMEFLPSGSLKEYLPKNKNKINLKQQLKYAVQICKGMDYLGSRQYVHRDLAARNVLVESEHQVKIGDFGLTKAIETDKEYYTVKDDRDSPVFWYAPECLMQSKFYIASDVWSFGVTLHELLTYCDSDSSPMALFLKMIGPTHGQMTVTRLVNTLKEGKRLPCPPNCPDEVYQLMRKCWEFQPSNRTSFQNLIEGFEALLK
Chain of Ribosomal protein S6 kinase beta-1 (P23443 whole entry): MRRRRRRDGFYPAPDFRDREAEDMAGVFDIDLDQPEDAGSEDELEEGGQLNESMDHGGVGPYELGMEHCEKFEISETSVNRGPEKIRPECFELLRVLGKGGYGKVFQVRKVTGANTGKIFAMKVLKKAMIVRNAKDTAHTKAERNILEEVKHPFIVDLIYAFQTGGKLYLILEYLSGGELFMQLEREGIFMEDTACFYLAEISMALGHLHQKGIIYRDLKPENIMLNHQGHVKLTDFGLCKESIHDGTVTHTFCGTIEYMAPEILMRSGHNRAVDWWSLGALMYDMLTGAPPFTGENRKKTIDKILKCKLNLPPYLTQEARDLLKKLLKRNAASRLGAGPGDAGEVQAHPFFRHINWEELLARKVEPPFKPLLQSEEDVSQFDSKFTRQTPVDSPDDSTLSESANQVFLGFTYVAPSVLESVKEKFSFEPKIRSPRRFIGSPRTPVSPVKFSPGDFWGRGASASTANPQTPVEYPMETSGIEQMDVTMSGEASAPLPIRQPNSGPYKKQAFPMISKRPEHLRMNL

O=C(Nc1ccc(-c2ccnc(Nc3ccc(N4CCOCC4)cc3)n2)cc1)[C@H]1CCCN1
bioavailability [1]: 68.6%
Cmax [2]: 640 nM
bioavailability [3]: 54.5%
Vd (Canis familiaris): 13.4 L/kg
pIC50 (Mus musculus [4]): 4.89
ED50 (Mus musculus [4]; po): 210 mg/kg
Cmax [5]: 440 nM
pIC50 [6]: 6.87
bioavailability [7]: 53.6%
concentration at 4 h [8]: 830 nM
Cmax [9]: 170 nM
INH [10]: 16 µM
AUC/dose (Rattus norvegicus [11]): 8.54 µM·kg·h/mg
half-life [12]: 3.23 h
half-life [13]: 1.13 h
pIC50 [14]: 6.46
inhibition in vivo at 300 mg/kg (HEL [15]): 70%
Vd (Cynomolgus monkey [16]): 6.739 L/kg
pIC50 [17]: 6.04
pIC50 [18]: 6.65
pIC50 [19]: 6.85
inhibition in vivo at 100 mg/kg (Mus musculus [20]): 40%
INH (Cytochrome P450 1A2): >= 20 uM
concentration at 4 h [21]: 2000 nM
pIC50 (Mus musculus [22]): 5.86
ED50 (Mus musculus [22]; po): 42 mg/kg
pIC50 [23]: 6.32
bioavailability [24]: 44.8%
inhibition in vivo at 300 mg/kg (Mus musculus [25]): 55%
fold change (FC) (HEL [26]): 11.3
inhibition in vivo at 30 mg/kg (Mus musculus [27]): 9%
half-life [28]: 6 h
Cmax [29]: 3530 nM
INH (Cytochrome P450 3A4): >= 20 uM
AUC/dose (Rattus norvegicus [30]): 15.99 µM·kg·h/mg
half-life [31]: 3.12 h
Vd (Rattus norvegicus [32]): 0.666 L/kg
concentration at 4 h [33]: 240000 nM
pIC50 [34]: 6.50
AUC/dose (Mus musculus [35]): 0.21 µM·kg·h/mg
concentration at 4 h [36]: 62400 nM
AUC/dose (Cynomolgus monkey [37]): 1.76 µM·kg·h/mg
inhibition in vivo at 200 mg/kg (HEL [38]): 60%
inhibition in vivo at 100 mg/kg (Mus musculus [39]): 72%
inhibition in vivo at 300 mg/kg (Mus musculus [40]): 88%
AUC/dose (Cynomolgus monkey [41]): 1.2 µM·kg·h/mg
INH [42]: > 20 µM
pIC50 [43]: 6.43
